This is an account of results in patent US20240254118A1, “PRMT5 INHIBITORS AND USES THEREOF” (Gilead Sciences, Inc., priority 2022, published 2024).

Assay [1] relates to HCT116 MTAP-deleted cells. Kind of assay: Cell viability assay (CellTiter-Glo, 7 days), HCT116 MTAP-deleted. The settings on record: Homo sapiens, HCT-116, 168 h.
For assay [2], the system named is SDMA signal (PRMT5 inhibition) in HCT116 MTAP-deleted cells. Kind of assay: Symmetric di-methyl arginine image-based high content screen assay (SDMA assay), HCT116 MTAP-deleted. The class given is cell-based. Particulars: SDMA assay; for EC50: Homo sapiens, HCT-116, 72 h, 3 days of treatment, cell line not given, taken as HCT116 MTAP-deleted, read-out: EC50 (SDMA assay); for EC50 selectivity (SDMA assay): taken as HCT116 WT versus MTAP-deleted. The method in brief: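 Read-out: per-cell mean SDMA immunofluorescence (Alexa Fluor 488 secondary), cells segmented by DAPI on a high-content imager. Compound exposure in HCT116 MTAP-deleted cells lasted until fixation on Day 3; overnight 4° C primary anti-SDMA antibody staining.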

For the compound `Cn1ncc2c(N)nc3ccc(C(=O)N(Cc4ccc(C(F)(F)F)cn4)N4CCC5(CC5)OC4=O)cc3c21` [Example 336, 4-amino-1-methyl-N-(5-oxo-4-oxa-6-azaspiro[2.5]octan-6-yl)-N-((5-(trifluoromethyl)pyridin-2-yl)methyl)-1H-pyrazolo[4,3-c]quinoline-8-carboxamide], the CC50 (commonly the concentration that lowers cell viability or growth by half) in assay [1] was below 100 nM. In assay [2], the EC50 – broadly, the concentration giving half of the maximal effect – was 1 to 5 nM and the “EC50 selectivity (SDMA assay)” value was 94.
`CC(=O)N(C)N(Cc1ccc2nc(C(F)(F)F)sc2c1)C(=O)c1ccc2nc(N)c3cnn(C)c3c2c1` [Example 337, N′-acetyl-4-amino-N′,1-dimethyl-N-((2-(trifluoromethyl)benzo[d]thiazol-6-yl)methyl)-1H-pyrazolo[4,3-c]quinoline-8-carbohydrazide] yielded a CC50 in assay [1] below 100 nM. In assay [2], the EC50 fell in the range of 1 to 5 nM and the “EC50 selectivity (SDMA assay)” value turned out to be 67.
Taken in the same sequence, the figures for `CN(C(=O)C12CC(C1)C2)N(Cc1ccc2ncsc2c1)C(=O)c1ccc2nc(N)c3cnn(C)c3c2c1` [Example 338, 4-amino-N-(benzo[d]thiazol-6-ylmethyl)-N′-(bicyclo[1.1.1]pentane-1-carbonyl)-N′,1-dimethyl-1H-pyrazolo[4,3-c]quinoline-8-carbohydrazideide] were below 100 nM, below 1 nM and 373.
Taken in the same sequence, the figures for `CN(C(=O)C1(C(F)F)CC1)N(Cc1ccc(C(F)(F)F)cn1)C(=O)c1ccc2nc(N)c3cnn(C)c3c2c1` [Example 339, 4-amino-N′-(1-(difluoromethyl)cyclopropane-1-carbonyl)-N′,1-dimethyl-N-((5-(trifluoromethyl)pyridin-2-yl)methyl)-1H-pyrazolo[4,3-c]quinoline-8-carbohydrazide] were 100 to 1000 nM, 1 to 5 nM and 280.
As for `CC(=O)N(C1COC1)N(Cc1ccc(C(F)(F)F)cc1F)C(=O)c1ccc2nc(N)c3cnn(C)c3c2c1` [Example 340, N′-acetyl-4-amino-N-(2-fluoro-4-(trifluoromethyl)benzyl)-1-methyl-N′-(oxetan-3-yl)-1H-pyrazolo[4,3-c]quinoline-8-carbohydrazide], the cytotoxic concentration (CC50) in assay [1] was below 100 nM. Further, in assay [2], the concentration for a half-maximal effect (EC50) is below 1 nM and the “EC50 selectivity (SDMA assay)” value came to 50.
For `CC(=O)N(CC1CC1)N(Cc1ccc(C(F)(F)F)cn1)C(=O)c1ccc2nc(N)c3cnn(C)c3c2c1` [Example 341, N′-acetyl-4-amino-N′-(cyclopropylmethyl)-1-methyl-N-((5-(trifluoromethyl)pyridin-2-yl)methyl)-1H-pyrazolo[4,3-c]quinoline-8-carbohydrazide] the same measures were below 100 nM, 1 to 5 nM and 188.
Turning to `CN(C(=O)C(F)(F)C1CC1)N(Cc1ccc(C(F)(F)F)cn1)C(=O)c1ccc2nc(N)c3cnn(C)c3c2c1` [Example 342, 4-amino-N′-(2-cyclopropyl-2,2-difluoroacetyl)-N′,1-dimethyl-N-((5-(trifluoromethyl)pyridin-2-yl)methyl)-1H-pyrazolo[4,3-c]quinoline-8-carbohydrazide], the CC50 in assay [1] was below 100 nM. Also, in assay [2], the EC50 fell in the range of 1 to 5 nM and the “EC50 selectivity (SDMA assay)” value came out at 30.
The compound `CN(C(=O)C1CC1)N(Cc1ccc(C(F)(F)F)cc1)C(=O)c1ccc2nc(N)c3cnn(C)c3c2c1` [Example 343, 4-amino-N′-(cyclopropanecarbonyl)-N′,1-dimethyl-N-(4-(trifluoromethyl)benzyl)-1H-pyrazolo[4,3-c]quinoline-8-carbohydrazide] gave a half-maximal cytotoxic concentration (CC50) in assay [1] below 100 nM. Besides, in assay [2], the EC50 was below 1 nM and the “EC50 selectivity (SDMA assay)” value is 96.
With `CN(C(=O)C1CC1)N(Cc1ccc(C(F)(F)F)cc1F)C(=O)c1ccc2nc(N)c3cnn(C)c3c2c1` [Example 344, 4-amino-N′-(cyclopropanecarbonyl)-N-(2-fluoro-4-(trifluoromethyl)benzyl)-N′,1-dimethyl-1H-pyrazolo[4,3-c]quinoline-8-carbohydrazide], the CC50 in assay [1] is below 100 nM. In assay [2], the EC50 is below 1 nM and the “EC50 selectivity (SDMA assay)” value was determined as 48.
Taken in the same sequence, the figures for `Cn1ncc2c(N)nc3ccc(C(=O)N(Cc4ccc(C(F)(F)F)cn4)N4CC5(CC(F)(F)C5)OC4=O)cc3c21` [Example 345, 4-amino-N-(2,2-difluoro-6-oxo-5-oxa-7-azaspiro[3.4]octan-7-yl)-1-methyl-N-((5-(trifluoromethyl)pyridin-2-yl)methyl)-1H-pyrazolo[4,3-c]quinoline-8-carboxamide] were 100 to 1000 nM, 1 to 5 nM and 152.
For `Cn1ncc2c(N)nc3ccc(C(=O)N(NC(=O)C4CC4)C4COc5cc(C(F)(F)F)ccc54)cc3c21` (stereo not drawn) [Example 349, 4-amino-N′-(cyclopropanecarbonyl)-1-methyl-N-(6-(trifluoromethyl)-2,3-dihydrobenzofuran-3-yl)-1H-pyrazolo[4,3-c]quinoline-8-carbohydrazide] the same measures were below 100 nM, below 1 nM and 13.
With `CCOC(=O)NN(C(=O)c1ccc2nc(N)c3cnn(C)c3c2c1)C1COc2cc(C(F)(F)F)ccc21` (stereo not drawn) [Example 350, ethyl 2-(4-amino-1-methyl-1H-pyrazolo[4,3-c]quinoline-8-carbonyl)-2-(6-(trifluoromethyl)-2,3-dihydrobenzofuran-3-yl)hydrazine-1-carboxylate], the CC50 in assay [1] is below 100 nM. In addition, in assay [2], the concentration for a half-maximal effect (EC50) was below 1 nM and the “EC50 selectivity (SDMA assay)” value stood at 42.
Consider `CC(=O)N(C)N(Cc1ccc(C(F)(F)F)c(F)c1)C(=O)c1ccc2nc(N)c3cnn(C)c3c2c1` [Example 351, N′-acetyl-4-amino-N-(3-fluoro-4-(trifluoromethyl)benzyl)-N′,1-dimethyl-1H-pyrazolo[4,3-c]quinoline-8-carbohydrazide], for which, in assay [1], the CC50 is below 100 nM. In addition, in assay [2], the EC50 was 1 to 5 nM and the “EC50 selectivity (SDMA assay)” value is on record as 33.
In turn, `Cn1ncc2c(N)nc3ccc(C(=O)N(Cc4ccc(C(F)(F)F)cn4)N4CC(F)(F)C4)cc3c21` [Example 359, 4-amino-N-(3,3-difluoroazetidin-1-yl)-1-methyl-N-((5-(trifluoromethyl)pyridin-2-yl)methyl)-1H-pyrazolo[4,3-c]quinoline-8-carboxamide] returned a CC50 in assay [1] below 100 nM. Besides, in assay [2], the concentration for a half-maximal effect (EC50) is below 1 nM and the “EC50 selectivity (SDMA assay)” value is reported as 320.
In assay [1], `CN(C(=O)C1CC1)N(Cc1ncc(Cl)cc1F)C(=O)c1ccc2nc(N)c3cnn(C)c3c2c1` [Example 360, 4-amino-N-((5-chloro-3-fluoropyridin-2-yl)methyl)-N′-(cyclopropanecarbonyl)-N′,1-dimethyl-1H-pyrazolo[4,3-c]quinoline-8-carbohydrazide] registered a CC50 below 100 nM. Besides, in assay [2], the EC50 lay within 1 to 5 nM and the “EC50 selectivity (SDMA assay)” value came out at 446.
The compound `CN(c1ccsn1)N(Cc1ccc(C(F)(F)F)cn1)C(=O)c1ccc2nc(N)c3cnn(C)c3c2c1` [Example 361] gave a CC50 in assay [1] below 100 nM. For the same compound, in assay [2], the EC50 is below 1 nM and the “EC50 selectivity (SDMA assay)” value is 34.
As for `Cn1ncc2c(N)nc3ccc(C(=O)N(Cc4ccc(C(F)(F)F)cn4)N4C(=O)O[C@H]5CC[C@H]54)cc3c21` [Example 362, 4-amino-1-methyl-N-((1S,5R)-3-oxo-2-oxa-4-azabicyclo[3.2.0]heptan-4-yl)-N-((5-(trifluoromethyl)pyridin-2-yl)methyl)-1H-pyrazolo[4,3-c]quinoline-8-carboxamide], in assay [1], the 50% cytotoxic concentration (CC50) is below 100 nM. In assay [2], the 50% effective concentration (EC50) lay within 1 to 5 nM and the “EC50 selectivity (SDMA assay)” value is reported as 468.
Taken in the same sequence, the figures for `Cn1ncc2c(N)nc3ccc(C(=O)N(Cc4ccc(F)cc4F)N4CCOCC4)cc3c21` [Example 365, 4-amino-N-(2,4-difluorobenzyl)-1-methyl-N-morpholino-1H-pyrazolo[4,3-c]quinoline-8-carboxamide] were 100 to 1000 nM, 1 to 5 nM and 233.
For `CN(C(=O)C1CC1)N(Cc1ccc(-c2cnn(C(F)(F)F)c2)cc1)C(=O)c1ccc2nc(N)c3cnn(C)c3c2c1` [Example 374, 4-amino-N′-(cyclopropanecarbonyl)-N′,1-dimethyl-N-[[4-[1-(trifluoromethyl)pyrazol-4-yl]phenyl]methyl]pyrazolo[4,3-c]quinoline-8-carbohydrazide] the same measures were below 100 nM, 1 to 5 nM and 125.
With `CC(=O)N(C)N(Cc1ccc(-c2cnn(C(F)(F)F)c2)cc1)C(=O)c1ccc2nc(N)c3cnn(C)c3c2c1` [Example 375, N′-acetyl-4-amino-N′,1-dimethyl-N-[[4-[1-(trifluoromethyl)pyrazol-4-yl]phenyl]methyl]pyrazolo[4,3-c]quinoline-8-carbohydrazide], in assay [1], the CC50 was below 100 nM. In assay [2], the 50% effective concentration (EC50) lay in the range of 1 to 5 nM and the “EC50 selectivity (SDMA assay)” value was found to be 141.
Compound `CN(C(=O)C1CC1)N(Cc1ccc(-c2cnn(C(F)(F)F)c2)cc1Cl)C(=O)c1ccc2nc(N)c3cnn(C)c3c2c1` [Example 376, 4-amino-N-[[2-chloro-4-[1-(trifluoromethyl)pyrazol-4-yl]phenyl]methyl]-N′-(cyclopropanecarbonyl)-N′,1-dimethyl-pyrazolo[4,3-c]quinoline-8-carbohydrazide] came in with a 50% cytotoxic concentration (CC50) in assay [1] below 100 nM. In assay [2], the 50% effective concentration (EC50) was 1 to 5 nM and the “EC50 selectivity (SDMA assay)” value is given as 164.
